Measured values reported in patent publication US4363805A, “Aminodesoxy-1.4;3.6-dianhydrohexitol nitrates and pharmaceutical composition” (Firma Willmar Schwabe, priority 1980, dated 1982).

Columns and labels:
narcotised guinea pigs = test: Blood pressure experiments on guinea pigs, i.v.; assay type: in vivo, guinea pig; settings: for blood pressure before: before administration
[1] = Acute toxicity, intravenous, mice; assay type: in vivo; settings: mouse, in vivo; intravenous, within 24 hours; read-out: Evaluated LD50-range
female NMRI-albino mice = test: Acute toxicity, intravenous, mice; assay type: in vivo; settings: within 24 hours
[2] = tested on: isolated guinea pig hearts; test: Experiments on Langendorff hearts (coronary flowthrough, inotropism, frequency); settings: Cavia porcellus, read-out: flowthrough, percentage change with regard to the initial value
Method: After reaching the stationary state in the 30th minute, the hearts were each perfused with 50 ml. tyrode solution with a content of test substance of, in each case, 25 μg./ml. Each test substance was tested on 3-6 hearts.
In each case, there was measured the inotropism, the flowthrough and the frequency, whereby the values given in Table I are average values of the percentage changes in comparison with the initial values.

mongrel cats = test: Inotropic and heart-circulatory effectiveness on narcotised cats, intravenous; assay type: in vivo, cat; settings: 6 animals; for blood pressure before / dp/dt (inotropism) before / heart frequency before: before administration

## O=[N+]([O-])O[C@H]1CO[C@H]2[C@@H]1OC[C@@H]2N1CCCC1 [14 b]
Narcotised guinea pigs; 0.25 mg/kg i.v.
  blood pressure after: 65.75 ± 0.75 mm.Hg
  blood pressure Δ: -5.50 mm.Hg
  blood pressure before: 71.25 ± 0.63 mm.Hg
Narcotised guinea pigs; 1.00 mg/kg i.v.
  blood pressure after: 56.25 ± 2.17 mm.Hg
  blood pressure Δ: -14.00 mm.Hg
Narcotised guinea pigs; 2.50 mg/kg i.v.
  blood pressure after: 49.25 ± 3.94 mm.Hg
  blood pressure Δ: -18.50 mm.Hg
[1]
  LD50 at 24 h: ≥ 200 mg/kg
Female NMRI-albino mice; 200 mg/kg i.v.
  Frequency of death: 1/3
[2]
  activation at 25 µg/mL: 25.4%

## O=[N+]([O-])O[C@H]1CO[C@H]2[C@@H]1OC[C@@H]2NCCCc1ccccc1 [Example 28, 5-(3-Phenylpropylamino)-5-desoxy-1.4;3.6-dianhydro-L-iditol 2-nitrate]
Mongrel cats; 0.25 mg/kg i.v.
  blood pressure before: 101.3 mm.Hg
  dp/dt (inotropism) before: 7667 mm.Hg/sec
  heart frequency before: 225.0 min⁻¹
  blood pressure WD: 3.1 min
  blood pressure after: 81.8 mm.Hg
  blood pressure Δ: -19.5 mm.Hg
  dp/dt (inotropism) after: 7400 mm.Hg/sec
  dp/dt (inotropism) Δ: -267 mm.Hg/sec
  dp/dt WD: 2.7 min
  heart frequency after: 223.3 min⁻¹
  heart frequency Δ: -1.7 min⁻¹
Mongrel cats; 0.50 mg/kg i.v.
  blood pressure WD: 5.8 min
  blood pressure after: 79.0 mm.Hg
  blood pressure Δ: -25.9 mm.Hg
  dp/dt (inotropism) after: 6567 mm.Hg/sec
  dp/dt (inotropism) Δ: -1000 mm.Hg/sec
  dp/dt WD: 10.7 min
  heart frequency after: 226.3 min⁻¹
  heart frequency Δ: -1.7 min⁻¹
Mongrel cats; 1.00 mg/kg i.v.
  blood pressure WD: 12.2 min
  blood pressure after: 70.0 mm.Hg
  blood pressure Δ: -39.7 mm.Hg
  dp/dt (inotropism) after: 5533 mm.Hg/sec
  dp/dt (inotropism) Δ: -1534 mm.Hg/sec
  dp/dt WD: 23.0 min
  heart frequency after: 227.0 min⁻¹
  heart frequency Δ: -1.0 min⁻¹
Mongrel cats; 2.50 mg/kg i.v.
  blood pressure WD: > 10 min
  blood pressure after: 53.2 mm.Hg
  blood pressure Δ: -50.3 mm.Hg
  dp/dt (inotropism) after: 3600 mm.Hg/sec
  dp/dt (inotropism) Δ: -3067 mm.Hg/sec
  dp/dt WD: > 10 min
  heart frequency after: 206.3 min⁻¹
  heart frequency Δ: -22.0 min⁻¹
[1]
  LD50 at 24 h: 50 to 100 mg/kg
Female NMRI-albino mice; 50 mg/kg i.v.
  Frequency of death: 0/10
Female NMRI-albino mice; 100 mg/kg i.v.
  Frequency of death: 5/6
Female NMRI-albino mice; 200 mg/kg i.v.
  Frequency of death: 3/3
[2]
  activation at 25 µg/mL: 68.1%

## O=[N+]([O-])O[C@H]1CO[C@H]2[C@@H]1OC[C@@H]2NCCOc1ccccc1 [Example 35, 5-(2-Phenoxyethylamino)-5-desoxy-1.4;3.6-dianhydro-L-iditol 2-nitrate]
[1]
  LD50 at 24 h: ≥ 100 mg/kg
Female NMRI-albino mice; 100 mg/kg i.v.
  Frequency of death: 2/6
Female NMRI-albino mice; 200 mg/kg i.v.
  Frequency of death: 3/3
[2]
  activation at 25 µg/mL: 34%

## CN(Cc1ccccc1)[C@H]1CO[C@H]2[C@@H]1OC[C@@H]2O[N+](=O)[O-] [Example 19, 5-(N-Benzyl-N-methylamino)-5-desoxy-1.4;3.6-dianhydro-L-iditol 2-nitrate]
[1]
  LD50 at 24 h: 100 to 200 mg/kg
Female NMRI-albino mice; 100 mg/kg i.v.
  Frequency of death: 0/3
Female NMRI-albino mice; 200 mg/kg i.v.
  Frequency of death: 6/6
[2]
  activation at 25 µg/mL: 100%

## Cc1cccc(OCC(O)CN[C@H]2CO[C@H]3[C@@H]2OC[C@@H]3O[N+](=O)[O-])c1 (stereo partly drawn) [Example 51, 5-[2-Hydroxy-3-(3-tolyloxy)-propylamino]-5-desoxy-1.4;3.6-dianhydro-L-iditol 2-nitrate]
Narcotised guinea pigs; 0.25 mg/kg i.v.
  blood pressure after: 63.00 ± 2.35 mm.Hg
  blood pressure Δ: -3.75 mm.Hg
  blood pressure before: 66.75 ± 2.49 mm.Hg
Narcotised guinea pigs; 1.00 mg/kg i.v.
  blood pressure after: 55.75 ± 2.36 mm.Hg
  blood pressure Δ: -10.25 mm.Hg
Narcotised guinea pigs; 2.50 mg/kg i.v.
  blood pressure after: 42.25 ± 1.32 mm.Hg
  blood pressure Δ: -23.50 mm.Hg
[1]
  LD50 at 24 h: 50 to 100 mg/kg
Female NMRI-albino mice; 50 mg/kg i.v.
  Frequency of death: 0/3
Female NMRI-albino mice; 100 mg/kg i.v.
  Frequency of death: 3/3
Female NMRI-albino mice; 200 mg/kg i.v.
  Frequency of death: 6/6
[2]
  activation at 25 µg/mL: 92.4%

## N[C@@H]1CO[C@H]2[C@@H]1OC[C@@H]2O[N+](=O)[O-] [2 b]
Narcotised guinea pigs; 0.25 mg/kg i.v.
  blood pressure after: 50.25 ± 8.19 mm.Hg
  blood pressure Δ: -5.75 mm.Hg
  blood pressure before: 56.00 ± 7.91 mm.Hg
Narcotised guinea pigs; 1.00 mg/kg i.v.
  blood pressure after: 41.50 ± 4.66 mm.Hg
  blood pressure Δ: -14.25 mm.Hg
Narcotised guinea pigs; 2.50 mg/kg i.v.
  blood pressure after: 31.75 ± 3.09 mm.Hg
  blood pressure Δ: -19.50 mm.Hg
[1]
  LD50 at 24 h: > 200 mg/kg
Female NMRI-albino mice; 200 mg/kg i.v.
  Frequency of death: 0/3
[2]
  activation at 25 µg/mL: 25.9%

## C=CCc1ccccc1OCC(O)CN[C@H]1CO[C@H]2[C@@H]1OC[C@@H]2O[N+](=O)[O-] (stereo partly drawn) [Example 49, 5-[2-Hydroxy-3-(2-allylphenoxy)-propylamino]-5-desoxy-1.4;3.6-dianhydro-L-iditol 2-nitrate]
Narcotised guinea pigs; 0.25 mg/kg i.v.
  blood pressure after: 43.50 ± 3.38 mm.Hg
  blood pressure Δ: -2.25 mm.Hg
  blood pressure before: 45.75 ± 2.53 mm.Hg
Narcotised guinea pigs; 1.00 mg/kg i.v.
  blood pressure after: 30.25 ± 1.70 mm.Hg
  blood pressure Δ: -12.75 mm.Hg
Narcotised guinea pigs; 2.50 mg/kg i.v.
  blood pressure after: 20.25 ± 1.03 mm.Hg
  blood pressure Δ: -22.50 mm.Hg
Mongrel cats; 0.25 mg/kg i.v.
  blood pressure before: 116.6 mm.Hg
  dp/dt (inotropism) before: 7840 mm.Hg/sec
  heart frequency before: 200.4 min⁻¹
  blood pressure WD: 2.8 min
  blood pressure after: 113.6 mm.Hg
  blood pressure Δ: -3.0 mm.Hg
  dp/dt (inotropism) after: 7360 mm.Hg/sec
  dp/dt (inotropism) Δ: -480 mm.Hg/sec
  dp/dt WD: 3.1 min
  heart frequency after: 201.2 min⁻¹
  heart frequency Δ: +0.8 min^-1
Mongrel cats; 0.50 mg/kg i.v.
  blood pressure WD: 3.7 min
  blood pressure after: 110.6 mm.Hg
  blood pressure Δ: -9.2 mm.Hg
  dp/dt (inotropism) after: 6540 mm.Hg/sec
  dp/dt (inotropism) Δ: -1060 mm.Hg/sec
  dp/dt WD: 14.0 min
  heart frequency after: 202.0 min⁻¹
  heart frequency Δ: +2.0 min^-1
Mongrel cats; 1.00 mg/kg i.v.
  blood pressure WD: 11.6 min
  blood pressure after: 105.8 mm.Hg
  blood pressure Δ: -16.8 mm.Hg
  dp/dt (inotropism) after: 4680 mm.Hg/sec
  dp/dt (inotropism) Δ: -2260 mm.Hg/sec
  dp/dt WD: > 40 min
  heart frequency after: 188.4 min⁻¹
  heart frequency Δ: -5.6 min⁻¹
Mongrel cats; 2.50 mg/kg i.v.
  blood pressure WD: > 10 min
  blood pressure after: 86.6 mm.Hg
  blood pressure Δ: -35.0 mm.Hg
  dp/dt (inotropism) after: 3780 mm.Hg/sec
  dp/dt (inotropism) Δ: -2900 mm.Hg/sec
  dp/dt WD: > 10 min
  heart frequency after: 170.4 min⁻¹
  heart frequency Δ: -20.8 min⁻¹
[2]
  activation at 25 µg/mL: 191%

## O=[N+]([O-])O[C@H]1CO[C@H]2[C@@H]1OC[C@@H]2NCC(O)COc1cccc2ccccc12 (stereo partly drawn) [Example 54, 5-[2-Hydroxy-3-(1-naphthyloxy)-propylamino]-5-desoxy-1.4;3.6-dianhydro-L-iditol 2-nitrate]
Narcotised guinea pigs; 0.25 mg/kg i.v.
  blood pressure after: 62.25 ± 8.05 mm.Hg
  blood pressure Δ: -4.75 mm.Hg
  blood pressure before: 67.00 ± 4.51 mm.Hg
Narcotised guinea pigs; 1.00 mg/kg i.v.
  blood pressure after: 56.50 ± 4.97 mm.Hg
  blood pressure Δ: -10.75 mm.Hg
Narcotised guinea pigs; 2.50 mg/kg i.v.
  blood pressure after: 44.75 ± 4.50 mm.Hg
  blood pressure Δ: -23.75 mm.Hg
Mongrel cats; 0.25 mg/kg i.v.
  blood pressure before: 115.2 mm.Hg
  dp/dt (inotropism) before: 8783 mm.Hg/sec
  heart frequency before: 188.7 min⁻¹
  blood pressure WD: 1.9 min
  blood pressure after: 103.8 mm.Hg
  blood pressure Δ: -11.4 mm.Hg
  dp/dt (inotropism) after: 8150 mm.Hg/sec
  dp/dt (inotropism) Δ: -633 mm.Hg/sec
  dp/dt WD: 3.9 min
  heart frequency after: 187.7 min⁻¹
  heart frequency Δ: -1.0 min⁻¹
Mongrel cats; 0.50 mg/kg i.v.
  blood pressure WD: 3.2 min
  blood pressure after: 101.8 mm.Hg
  blood pressure Δ: -15.9 mm.Hg
  dp/dt (inotropism) after: 6833 mm.Hg/sec
  dp/dt (inotropism) Δ: -1934 mm.Hg/sec
  dp/dt WD: 7.6 min
  heart frequency after: 186.7 min⁻¹
  heart frequency Δ: -0.7 min⁻¹
Mongrel cats; 1.00 mg/kg i.v.
  blood pressure WD: 5.6 min
  blood pressure after: 91.0 mm.Hg
  blood pressure Δ: -27.8 mm.Hg
  dp/dt (inotropism) after: 5050 mm.Hg/sec
  dp/dt (inotropism) Δ: -3283 mm.Hg/sec
  dp/dt WD: 15.2 min
  heart frequency after: 172.0 min⁻¹
  heart frequency Δ: -12.0 min⁻¹
Mongrel cats; 2.50 mg/kg i.v.
  blood pressure WD: 6.4 min
  blood pressure after: 78.5 mm.Hg
  blood pressure Δ: -44.8 mm.Hg
  dp/dt (inotropism) after: 2817 mm.Hg/sec
  dp/dt (inotropism) Δ: -5183 mm.Hg/sec
  dp/dt WD: > 10 min
  heart frequency after: 158.3 min⁻¹
  heart frequency Δ: -20.0 min⁻¹
[2]
  activation at 25 µg/mL: 274%

## CN(CCCc1ccccc1)[C@H]1CO[C@H]2[C@@H]1OC[C@@H]2O[N+](=O)[O-] [Example 21, 5-[N-Methyl-N-(3-phenylpropyl)-amino]-5-desoxy-1.4;3.6-dianhydro-L-iditol 2-nitrate]
[1]
  LD50 at 24 h: 50 to 100 mg/kg
Female NMRI-albino mice; 50 mg/kg i.v.
  Frequency of death: 0/3
Female NMRI-albino mice; 100 mg/kg i.v.
  Frequency of death: 3/3
Female NMRI-albino mice; 200 mg/kg i.v.
  Frequency of death: 6/6
[2]
  activation at 25 µg/mL: 117%

## O=[N+]([O-])O[C@H]1CO[C@H]2[C@@H]1OC[C@@H]2NCc1ccccc1 [Example 25, 5-Benzylamino-5-desoxy-1.4;3.6-dianhydro-L-iditol 2-nitrate]
[1]
  LD50 at 24 h: 100 to 200 mg/kg
Female NMRI-albino mice; 100 mg/kg i.v.
  Frequency of death: 0/3
Female NMRI-albino mice; 200 mg/kg i.v.
  Frequency of death: 6/6
[2]
  activation at 25 µg/mL: 47.8%

## CCN(CC)[C@H]1CO[C@H]2[C@@H]1OC[C@@H]2O[N+](=O)[O-] [13 b]
[1]
  LD50 at 24 h: 100 to 200 mg/kg
Female NMRI-albino mice; 100 mg/kg i.v.
  Frequency of death: 0/3
Female NMRI-albino mice; 200 mg/kg i.v.
  Frequency of death: 6/6
[2]
  activation at 25 µg/mL: 9.05%

## CN(C)[C@H]1CO[C@H]2[C@@H]1OC[C@@H]2O[N+](=O)[O-] [12 b]
[1]
  LD50 at 24 h: > 200 mg/kg
Female NMRI-albino mice; 200 mg/kg i.v.
  Frequency of death: 0/3
[2]
  activation at 25 µg/mL: 16.2%
